The data set deals with CCRIS mutagenicity, Ames/micronucleus/aberration tests. The experiment in a line: CCRIS mutagenicity studies.
The mark [1] stands for this setting: Test System: AMES SALMONELLA TYPHIMURIUM, Strain/Indicator: TA98, Metabolic Activation: NONE, Method: PREINCUBATION
Setting [2] is: Test System: AMES SALMONELLA TYPHIMURIUM, Strain/Indicator: TA100, Metabolic Activation: NONE, Method: PREINCUBATION
[3] abbreviates: Test System: AMES SALMONELLA TYPHIMURIUM, Strain/Indicator: TA98, Metabolic Activation: HAMSTER, LIVER, S-9, AROCLOR 1254, Method: PREINCUBATION
[4] abbreviates: Test System: AMES SALMONELLA TYPHIMURIUM, Strain/Indicator: TA98, Metabolic Activation: RAT, LIVER, S-9, AROCLOR 1254, Method: PREINCUBATION
The mark [5] stands for this setting: Test System: AMES SALMONELLA TYPHIMURIUM, Strain/Indicator: TA100, Metabolic Activation: HAMSTER, LIVER, S-9, AROCLOR 1254, Method: PREINCUBATION
[6] abbreviates: Test System: AMES SALMONELLA TYPHIMURIUM, Strain/Indicator: TA100, Metabolic Activation: RAT, LIVER, S-9, AROCLOR 1254, Method: PREINCUBATION
The mark [7] stands for this setting: Test System: AMES SALMONELLA TYPHIMURIUM, Strain/Indicator: TA1535, Metabolic Activation: HAMSTER, LIVER, S-9, AROCLOR 1254, Method: PREINCUBATION
[8] abbreviates: Test System: AMES SALMONELLA TYPHIMURIUM, Strain/Indicator: TA1535, Metabolic Activation: NONE, Method: PREINCUBATION
Where [9] appears, read: Test System: AMES SALMONELLA TYPHIMURIUM, Strain/Indicator: TA1535, Metabolic Activation: RAT, LIVER, S-9, AROCLOR 1254, Method: PREINCUBATION
The mark [10] stands for this setting: Test System: AMES SALMONELLA TYPHIMURIUM, Strain/Indicator: TA1537, Metabolic Activation: HAMSTER, LIVER, S-9, AROCLOR 1254, Method: PREINCUBATION
The mark [11] stands for this setting: Test System: AMES SALMONELLA TYPHIMURIUM, Strain/Indicator: TA1537, Metabolic Activation: NONE, Method: PREINCUBATION
The mark [12] stands for this setting: Test System: AMES SALMONELLA TYPHIMURIUM, Strain/Indicator: TA1537, Metabolic Activation: RAT, LIVER, S-9, AROCLOR 1254, Method: PREINCUBATION
[13] abbreviates: Test System: AMES SALMONELLA TYPHIMURIUM, Strain/Indicator: TA98, Metabolic Activation: NONE, Method: STANDARD PLATE.
The mark [14] stands for this setting: Test System: AMES SALMONELLA TYPHIMURIUM, Strain/Indicator: TA100, Metabolic Activation: NONE, Method: STANDARD PLATE.
[15] abbreviates: Test System: AMES SALMONELLA TYPHIMURIUM, Strain/Indicator: TA100, Metabolic Activation: RAT, LIVER, S-9, AROCLOR 1254, Method: STANDARD PLATE.

Mutagenic call data for twelve compounds are collected here from PubChem BioAssay AID1259407 (Chemical Carcinogenesis Research Information System (CCRIS), 2018).

The structures appear in SMILES notation. Activity calls are given as the source filed them. No rule for the calls is given here.

For `CC(=O)Nc1cccc2cccnc12`, the mutagenic call by setting is: under setting [1], “inactive; negative”; (Test System: AMES SALMONELLA TYPHIMURIUM, Strain/Indicator: TA98, Metabolic Activation: RAT, LIVER, S-9, KANECHLOR 500, Method: PREINCUBATION) “inactive; negative”; under setting [2], “inactive; negative”; (Test System: AMES SALMONELLA TYPHIMURIUM, Strain/Indicator: TA100, Metabolic Activation: RAT, LIVER, S-9, KANECHLOR 500, Method: PREINCUBATION) “active; positive”; (Test System: AMES SALMONELLA TYPHIMURIUM, Strain/Indicator: TA100, Metabolic Activation: RAT, LIVER, S-9, PHENOBARBITAL AND 5,6-BENZOFLAVONE, Method: PREINCUBATION) “active; positive”; (Test System: AMES SALMONELLA TYPHIMURIUM, Strain/Indicator: TA100, Metabolic Activation: S-9, Method: PREINCUBATION) “active; positive”.

`Nc1[nH]c(=O)nc2c1ncn2[C@@H]1O[C@H](CO)[C@@H](O)[C@H]1O`: the mutagenic call under setting [2] was “inactive; negative”.

Consider `NC(=O)CCCCC(N)=O`, for which the mutagenic call under setting [3] was “inactive; negative”; the mutagenic call under setting [1] was “inactive; negative”; the mutagenic call under setting [4] is “inactive; negative”; the mutagenic call under setting [5] was “inactive; negative”; the mutagenic call under setting [2] was “inactive; negative”; the mutagenic call under setting [6] is “inactive; negative”. For the same compound, the mutagenic call is “inactive; negative” under setting [7]; “inactive; negative” under setting [8]; “inactive; negative” under setting [9]; “inactive; negative” under setting [10]; “inactive; negative” under setting [11]; “inactive; negative” under setting [12].

As for `O=CN(O)c1ccc(F)cc1`, the mutagenic call was “inactive; negative” under setting [13]; “active; positive” (Test System: AMES SALMONELLA TYPHIMURIUM, Strain/Indicator: TA98, Metabolic Activation: RAT, LIVER, S-9, AROCLOR 1254, Method: STANDARD PLATE); “inactive; negative” under setting [14]; “active; positive” under setting [15].

In the case of `O=C1c2ccccc2Cc2ccccc21`, the mutagenic call is, setting by setting: under setting [13], “active; positive”; under setting [14], “inactive; negative”; under setting [15], “inactive; negative”.

As to `O=[N+]([O-])c1ccc2cccc3c2c1CC3`, the mutagenic call under setting [13] was “active; positive”.

Consider `CC[C@H]1OC(=O)[C@H](C)[C@@H](O[C@H]2C[C@@](C)(OC)[C@@H](O)[C@H](C)O2)[C@H](C)[C@@H](O[C@@H]2O[C@H](C)C[C@H](N(C)C)[C@H]2O)[C@](C)(O)C[C@@H](C)C(=O)[C@H](C)[C@@H](O)[C@]1(C)O`, for which the mutagenic call is “inactive; negative” (End Point: AMES SALMONELLA TYPHIMURIUM, Test System: TA98, Metabolic Activation: NONE, Method: STANDARD PLATE); “inactive; negative” (End Point: AMES SALMONELLA TYPHIMURIUM, Test System: TA100, Metabolic Activation: NONE, Method: STANDARD PLATE); “inactive; negative; testing limited by solubility of the chemical” (End Point: IN VITRO CHROMOSOMAL ABERRATIONS, Test System: CHO CELLS, Metabolic Activation: NONE); “inactive; negative; testing limited by solubility of the chemical” (End Point: IN VITRO CHROMOSOMAL ABERRATIONS, Test System: CHO CELLS, Metabolic Activation: RAT, LIVER, S-9, AROCLOR 1254); “inactive; negative” under setting [3]; “inactive; negative” under setting [1]. For the same compound, the mutagenic call by setting is: under setting [4], “inactive; negative”; under setting [5], “inactive; negative”; under setting [2], “inactive; negative”; under setting [6], “inactive; negative”; under setting [7], “inactive; negative”; under setting [8], “inactive; negative”. Further, the mutagenic call reads like this: under setting [9], “inactive; negative”; under setting [10], “inactive; negative”; under setting [11], “inactive; negative”; under setting [12], “inactive; negative”; (Test System: MOUSE LYMPHOMA, Strain/Indicator: L5178Y (TK+/TK-), Metabolic Activation: RAT, LIVER, S-9, AROCLOR 1254, Method: SUSPENSION/PLATE) “inactive; negative”.

For `C#CC(OC(=O)NC1CCCCC1)(c1ccccc1)c1ccc(C)c(C)c1` (centres undefined), the mutagenic call is “active; positive” under setting [14]; “active; positive” (Test System: AMES SALMONELLA TYPHIMURIUM, Strain/Indicator: TA1535, Metabolic Activation: NONE, Method: STANDARD PLATE); “active; positive” (Test System: UDS HUMAN FIBROBLASTS, Strain/Indicator: THY INCORP (NON-S-PHASE), Metabolic Activation: NONE, Method: AUTORADIOGRAPHY).

As for `CC(Cl)C(=O)NCc1ccccc1` (centres undefined), the mutagenic call reads like this: (Test System: AMES SALMONELLA TYPHIMURIUM, Strain/Indicator: TA100, Metabolic Activation: MOUSE, LIVER, S-9, AROCLOR 1254, Method: STANDARD PLATE) “inactive; negative”; under setting [14], “inactive; negative”.

Consider `C=CCC1(C(C)C#CCC)C(=O)N=C(O)N(C)C1=O` (centres undefined), for which the mutagenic call was “inactive; negative” (Test System: AMES SALMONELLA TYPHIMURIUM, Strain/Indicator: TA97, Metabolic Activation: HAMSTER, LIVER, S-9, AROCLOR 1254 (10 OR 30%), Method: PREINCUBATION); “inactive; negative” (Test System: AMES SALMONELLA TYPHIMURIUM, Strain/Indicator: TA97, Metabolic Activation: NONE, Method: PREINCUBATION); “inactive; negative” (Test System: AMES SALMONELLA TYPHIMURIUM, Strain/Indicator: TA97, Metabolic Activation: RAT, LIVER, S-9, AROCLOR 1254 (10 OR 30%), Method: PREINCUBATION); “inactive; negative” (Test System: AMES SALMONELLA TYPHIMURIUM, Strain/Indicator: TA98, Metabolic Activation: HAMSTER, LIVER, S-9, AROCLOR 1254 (10 OR 30%), Method: PREINCUBATION); “inactive; negative” under setting [1]; “inactive; negative” (Test System: AMES SALMONELLA TYPHIMURIUM, Strain/Indicator: TA98, Metabolic Activation: RAT, LIVER, S-9, AROCLOR 1254 (10 OR 30%), Method: PREINCUBATION). The mutagenic call (Test System: AMES SALMONELLA TYPHIMURIUM, Strain/Indicator: TA100, Metabolic Activation: HAMSTER, LIVER, S-9, AROCLOR 1254 (10 OR 30%), Method: PREINCUBATION) was “inactive; negative”; the mutagenic call under setting [2] was “inactive; negative”; the mutagenic call (Test System: AMES SALMONELLA TYPHIMURIUM, Strain/Indicator: TA100, Metabolic Activation: RAT, LIVER, S-9, AROCLOR 1254 (10 OR 30%), Method: PREINCUBATION) was “inactive; negative”; the mutagenic call (Test System: AMES SALMONELLA TYPHIMURIUM, Strain/Indicator: TA1535, Metabolic Activation: HAMSTER, LIVER, S-9, AROCLOR 1254 (10 OR 30%), Method: PREINCUBATION) was “inactive; negative”; the mutagenic call under setting [8] was “inactive; negative”; the mutagenic call (Test System: AMES SALMONELLA TYPHIMURIUM, Strain/Indicator: TA1535, Metabolic Activation: RAT, LIVER, S-9, AROCLOR 1254 (10 OR 30%), Method: PREINCUBATION) was “inactive; negative”.

For `O=[N+]([O-])c1cccc(S(=O)(=O)OC[C@H]2CO2)c1`, under setting [14], the mutagenic call was “active; positive”.

For `CC(=O)O[C@H]1[C@H](OC23C=C(C)C4(CC4)C(C)(O)C2C(=O)C(C)(C)C3)O[C@H](CO)[C@@H](OC(=O)/C=C\c2ccc(O)cc2)[C@@H]1O` (some centres undefined), the mutagenic call is “active; positive” under setting [1] and “active; positive” under setting [2].
